Values after ≈ are worked out from the molar mass of the structure shown.

The conditions of this data set: buffer; pH 7.4; 6.0 h; 150.0 µM.
`CCCN1CNc2c(c(=O)[nH]c(=S)n2CCc2ccc(OC)c(OC)c2)C1` returned a solubility (kinetic) above 58 µg/mL.
Under `CCOC(=O)C1CCN(C(=O)Nc2ccc3c(c2)nc(C)n3C)CC1` stands above 51 µg/mL; under `COC(=O)c1cc(Cl)ccc1NC(=O)CSc1ncc(S(=O)(=O)c2ccc(Br)cc2)c(=O)[nH]1`, 59.1 µg/mL (≈ 103 µM).
For the compound `CCOC(=O)Nc1ccc(NCc2ccc(F)cc2)nc1N`, the kinetic solubility was 8.21 µg/mL (≈ 27 µM).
Under `CC(=O)c1cccc(-c2csc3ncnc(Sc4nnnn4C)c23)c1` stands 14.1 µg/mL (≈ 38.2 µM).
Under `S=C(NCCCc1cnc[nH]1)NCCCN(Cc1ccc(Cl)c(Cl)c1)c1ccc(Br)cn1` stands below 1 µg/mL.
Under `O=C(Nc1nnc(-c2cccs2)o1)c1ccc(Cl)cc1` stands 6.09 µg/mL (≈ 19.9 µM); under `O=C(NC1CCCc2c1cnn2-c1ccc(F)cc1F)c1ccc(C2(C(F)(F)F)N=N2)cc1` (centres undefined), below 1 µg/mL.
The compound `CNC(=O)c1nn(C)c2c1C(C)(C)Cc1cnc(Nc3ccc(N4CCN(C)CC4)cc3)nc1-2` registered a kinetic solubility above 68 µg/mL.
In turn, `Cc1ccc(-c2ccnc(N3CCC(C(N)=O)CC3)n2)cc1` came in with a kinetic solubility of 2.67 µg/mL (≈ 9.01 µM).
Under `CCn1c(C(=O)NCCc2ccc(OC)cc2)cc2sccc21` stands 2.08 µg/mL (≈ 6.34 µM).
Under `O=C1CCCC2=C1C(c1[nH]ncc1Cl)N=C(Nc1nc3ccc(F)cc3o1)N2` (centres undefined) stands 1.53 µg/mL (≈ 3.81 µM); under `C#C[C@]1(OC(C)=O)CC[C@H]2[C@@H]3CCC4=C/C(=N/O)CC[C@@H]4[C@H]3CC[C@@]21CC`, below 1 µg/mL.
As to `Cc1cnc(-c2ccccc2C2CC2)nc1NCc1ccc(-c2cccnc2)cc1`, the kinetic solubility was below 1 µg/mL.
Under `CCOC(=O)C1CCN(C(=O)C(C)(C)NC(=O)Nc2ccc(Cl)cc2Cl)CC1` stands 37 µg/mL (≈ 86 µM).
Under `CCOc1cc(CCNC(=O)c2cc3sccc3n2Cc2ccccc2)cc(F)c1OCC` stands below 1 µg/mL.
Under `O=C([C@@H]1CCCN(c2ccc3[nH]c(C4(n5cc(Cl)cn5)CC4)nc3n2)C1)N1CCCC1` stands 27.2 µg/mL (≈ 61.8 µM); under `Cc1ccc(CC(=O)Nc2nc(-c3ccc4c(c3)CCN4C(=O)c3ccccc3C)c(C)s2)cc1C`, below 1 µg/mL.
For the compound `Fc1ccc(CNc2cc3c(cn2)CN(Cc2ccncc2)CCN3)cc1`, the kinetic solubility amounted to 36.6 µg/mL (≈ 101 µM).
Under `O=C(NC1CCCCC1)N1Cc2[nH]cnc2C[C@H]1c1nc(-c2cccc([N+](=O)[O-])c2)no1` stands 14.2 µg/mL (≈ 32.5 µM); under `COC(=O)CNC(=O)c1nc(-c2ccc(Cl)cc2Cl)c2cnccn12`, 14.2 µg/mL (≈ 37.6 µM); under `CCCc1ccc(NC(=O)c2ccc3c(c2)NC(=O)CS3)cc1`, below 1 µg/mL.
Under `CC1=C(C(=O)Nc2ccccc2C)C(c2ccccc2Br)N=C(Nc2nc3ccccc3o2)N1` (centres undefined) stands below 1 µg/mL; under `COc1cccc(-c2csc(N3CCC(C(N)=O)CC3)n2)c1`, above 47 µg/mL; under `CC(=O)c1c(C)[nH]c(C(=O)Nc2cccc([S+](=O)([O-])N3CCC(F)(F)CC3)c2)c1C`, 8.98 µg/mL (≈ 20.4 µM).
Under `O=C1Nc2ccccc2/C1=C/c1ccc[nH]1` stands 1.91 µg/mL (≈ 9.09 µM).
Turning to `O=C(Nc1ccc([S+](=O)([O-])Nc2nccs2)cc1)c1ccccn1`, the solubility (kinetic) is 7.05 µg/mL (≈ 19.6 µM). This solubility kinetic is about 3.7-fold higher than that of the compound before.
Under `C[C@H]1[C@@H](CCC(=O)Nc2ccc(F)cc2)O[C@@H]2O[C@]3(C)CC[C@@H]4[C@H](C)CC[C@@H]1[C@@]24OO3` stands 24 µg/mL (≈ 55.3 µM).
Under `COC(=O)c1ccnc(NC(=S)N2CCN(c3cccc(C(F)(F)F)c3)CC2)c1` stands 2.19 µg/mL (≈ 5.17 µM); under `CS(=O)(=O)N1CCN(c2nc(-c3ccc(Br)cc3)cs2)CC1`, below 1 µg/mL.
Under `COc1ccc(-c2nc(CS(=O)CC(=O)N3CCC4(CC3)OCCO4)c(C)o2)cc1` (centres undefined) stands above 64 µg/mL; under `Nc1ncnc2c1C(=O)N(c1ccc(C3CCC(CC(=O)O)CC3)cc1)CCO2` (centres undefined), above 59 µg/mL.
For the compound `Cc1ccc(S(=O)(=O)Nc2ccccc2C(=O)Nc2nc(-c3ccccc3)cs2)cc1`, the solubility (kinetic) is below 1 µg/mL.
Under `Cc1ccc(CSCc2ccc(C(=O)NC3CC3)o2)cc1` stands above 44 µg/mL; under `CCN(CC)S(=O)(=O)c1ccc(N2CCOCC2)c(NC(=O)c2[nH]c(C)c(C(C)=O)c2C)c1`, 3.85 µg/mL (≈ 8.08 µM); under `Nc1nc2c(s1)C(c1cccc(Cl)c1Cl)CC(=O)N2` (centres undefined), below 1 µg/mL.
Under `Cn1nnnc1SCCCNCc1cccc(OCc2ccccc2Cl)c1` stands above 60 µg/mL.
Under `COc1cc(Cl)c(C)cc1Nc1c2c(nc3ccccc13)CCC2` stands 3.79 µg/mL (≈ 11.2 µM); under `CCOC(=O)C1CCN(C(=O)C(C)(C)NC(=O)Nc2ccc(-c3ccccc3)cc2)CC1`, 10.8 µg/mL (≈ 24.6 µM).
`CCOC(=O)C1=C(C)NC(=O)CC1C(=O)Nc1cc(Cl)cc(Cl)c1` (centres undefined) had a kinetic solubility of 22.4 µg/mL (≈ 60.2 µM).
The compound `COc1ccc(NS(=O)(=O)c2ccc(C)cc2)c(C(=O)Nc2nc(-c3ccccc3)cs2)c1` showed a kinetic solubility below 1 µg/mL.
Under `CCCNc1oc(-c2cccc3ccccc23)nc1C#N` stands below 1 µg/mL; under `Oc1ccc(CNc2cccc(F)c2F)c2cccnc12`, below 1 µg/mL.
As to `Fc1ccc(Nc2nc(Nc3ccncc3)nc3ccccc23)cc1F`, the solubility (kinetic) amounted to 2.19 µg/mL (≈ 6.25 µM).
For `Oc1ccc(CNc2ccc(F)cc2F)c2cccnc12`, the solubility (kinetic) was 1.22 µg/mL (≈ 4.27 µM). Against the preceding compound, the solubility kinetic is about 1.8-fold lower.
As to `CC(C)(C)C(O)C(Oc1ccc(Cl)cc1)n1cncn1` (centres undefined), the kinetic solubility was above 44 µg/mL.
Under `CCOC(=O)c1cc(C)sc1NC(=O)c1ccc(Cl)s1` stands below 1 µg/mL.
Under `Cc1ccc2cccc(NC(=O)c3ccc(OC(C)C)cc3)c2n1` stands below 1 µg/mL; under `Fc1ccc(Nc2nc(-c3ccccc3)cc(-c3ccncc3)n2)cc1F`, below 1 µg/mL.
Under `Cc1ccc(-n2c(C)cc(-c3nnc4n3CCCCC4)c2C)cc1` stands 27.8 µg/mL (≈ 86.6 µM); under `N#Cc1cccc(Nc2ncc(-c3cccc4ccccc34)o2)c1`, below 1 µg/mL; under `COc1ccc(Nc2cc(C)nc(-n3nc(C)cc3C)n2)cc1Cl`, 3.58 µg/mL (≈ 10.4 µM).
Turning to `CS(=O)(=O)c1ccc(-c2nnc(/C=C/c3nnc(-c4ccc(C#N)cc4)o3)n2-c2ccccc2Cl)nc1`, the solubility (kinetic) was 4.17 µg/mL (≈ 7.86 µM). This solubility kinetic and that of the compound before are within 1.5-fold of each other.
As for `CCOC(=O)c1ccnc(CNCC(=O)N(CC)CCN(C)C)c1`, the solubility (kinetic) was above 50 µg/mL.
For `O=C(NCCCCc1ccccc1)C1CCN(c2nc(-c3ccc(Br)cc3)cs2)CC1`, the kinetic solubility is 7.06 µg/mL (≈ 14.2 µM).
Under `CCc1cc(Cl)c(OC)c(C(=O)NC[C@@H]2CCCN2CC)c1O.Cl` stands 27.3 µg/mL; under `Cn1cnc2c(F)c(Nc3ccc(Br)cc3Cl)c(C(=O)NOCCO)cc21`, above 45 µg/mL.
`O=C(Nc1ccc2oc(-c3cccnc3)nc2c1)c1ccc(-c2cccc(Cl)c2)o1` showed a solubility (kinetic) of 1.1 µg/mL (≈ 2.65 µM).
`Cc1ccc(NC(=O)c2c(N3CCCC3=O)c3cc(C)ccc3n2C)c(C)c1` returned a kinetic solubility below 1 µg/mL.
With `CCc1nc2c(sc3nc4c(cc32)COC(C)(C)C4)c(=O)n1Cc1ccco1`, the solubility (kinetic) stood at 6.22 µg/mL (≈ 15.7 µM).
Under `O=C(O)c1cccc(-c2noc(-c3ccccc3F)n2)c1` stands 7.02 µg/mL (≈ 24.7 µM).
Under `Nc1cc2nc3ccccc3oc-2cc1=O` stands 17.9 µg/mL (≈ 84.6 µM).
Under `COc1cccc(CNc2ccc(S(=O)(=O)Nc3nccs3)cc2)c1` stands 27.2 µg/mL (≈ 72.5 µM); under `Cc1cnc(SCc2ccccn2)nc1C1CCCN(C(=O)c2scc3c2CCCC3)C1` (centres undefined), 4.03 µg/mL (≈ 8.68 µM); under `Cn1c(=O)c2[nH]c(=O)[nH]c2n(C)c1=O`, above 29 µg/mL.
Regarding `CC(=O)Nc1ccc(OCc2cn(CC(=O)c3ccc(O)cc3)nn2)cc1`, the kinetic solubility amounted to 18.7 µg/mL (≈ 51 µM).
Turning to `COC(=O)c1ccc(Nc2nc(-c3ccncc3)nc3ccccc23)cc1OC`, the solubility (kinetic) was below 1 µg/mL.
Under `CN(C)S(=O)(=O)c1cccc(NC(=O)c2ccc[nH]2)c1` stands 13.3 µg/mL (≈ 45.2 µM); under `O=C(c1cnn(-c2cccc(F)c2)c1-n1cccc1)N1CCN(c2ccccc2F)CC1`, 1.11 µg/mL (≈ 2.56 µM).
Under `COc1cccc(CNC(=O)c2ccc(N3CCCC3)c(NC(=O)Nc3ccccc3F)c2)c1` stands below 1 µg/mL; under `CCOC(=O)c1ccc(N2C(=O)c3n[nH]c(-c4cccs4)c3C2c2ccc(OCC)cc2)cc1` (centres undefined), below 1 µg/mL; under `CCOc1cc(-c2nccc3cc(OC)c(OC)cc23)cc(OCC)c1OCC`, 13.8 µg/mL (≈ 34.6 µM).
Under `Cc1nc(-c2ccccc2)cc([C@H]2CN3CC[C@H]2C[C@@H]3CNC2CCOCC2)n1` stands above 58 µg/mL.
`COc1cccc(C(=O)Nc2nc(-c3nnn(-c4cc(C)ccc4C)c3C)ns2)c1` gave a solubility (kinetic) of 1.2 µg/mL (≈ 2.86 µM).
With `Cn1c(C(=O)NCCc2ccccn2)nc2nc(-c3ccccc3)c(Cl)cc21`, the solubility (kinetic) stood at 1.11 µg/mL (≈ 2.84 µM).
Under `CC(=O)Nc1ccc(N[S+](=O)([O-])c2cccc(NC(=O)c3[nH]c(C)c(C(C)=O)c3C)c2)cc1` stands 18.3 µg/mL (≈ 39 µM); under `O=C(Nc1cc(Cc2ccccc2)ccn1)c1ccc(-c2cccc([N+](=O)[O-])c2)o1`, below 1 µg/mL.
In the case of `Cc1ccc2oc3c(c(=O)c2c1)C(c1cccc(O)c1)N(CCCN1CCOCC1)C3=O` (centres undefined), the kinetic solubility was above 64 µg/mL.
Under `O=C(Nc1ccc(Cl)cc1)C(NS(=O)(=O)c1cccs1)c1ccccc1` (centres undefined) stands below 1 µg/mL.
Under `COC(=O)c1sccc1NC(=O)c1sccc1C` stands below 1 µg/mL; under `O=C1CCCC2=C1C1(CCS(=O)(=O)C1)N=C(Nc1nc3ccccc3o1)N2` (centres undefined), 1.02 µg/mL (≈ 2.65 µM); under `O=C(Nc1nnc(-c2ccc(Cl)cc2)o1)c1ccc(Cl)c(Cl)c1`, below 1 µg/mL.
Under `CCN(C(=O)C(NS(=O)(=O)c1ccc(Br)s1)c1ccccc1)c1ccc(C)c(C)c1` (centres undefined) stands below 1 µg/mL.
The compound `Cc1csc2nc(-c3cccc(NC(=O)c4ccccc4Cl)c3)cn12` displayed a solubility (kinetic) below 1 µg/mL.
`CC(C)(C)c1ccc(C(=O)Nc2ccc3c(c2)CCCN3C(=O)c2cccs2)cc1` showed a solubility (kinetic) below 1 µg/mL.
Compound `CCN1CCc2c(sc(NC(=O)Nc3ccc(Cl)c(Cl)c3)c2C(N)=O)C1` displayed a solubility (kinetic) below 1 µg/mL.
For `CN1CCN(CCCN2c3ccccc3Sc3ccc(S(=O)(=O)N(C)C)cc32)CC1.CS(=O)(=O)O.CS(=O)(=O)O`, the kinetic solubility was above 66 µg/mL.
Under `Cc1cccc(C)c1Nc1c(-c2cccs2)nc2ncccn12` stands 3.44 µg/mL (≈ 10.8 µM); under `COc1cccc(O)c1CNc1ccc(S(=O)(=O)Nc2nccs2)cc1`, above 58 µg/mL.

As a reminder, the kinetic solubility is solubility judged after dilution from a stock solution rather than from solid.

(Values after PubChem BioAssay AID1645848.)
